Reference: patent EP1067939B1, “USE OF STEROIDAL ALKALOID DERIVATIVES AS INHIBITORS OF HEDGEHOG PROTEIN SIGNALING PATHWAYS” (The Johns Hopkins University, priority 1998, dated 1999)
Read-outs that look alike come from different tables or passages of the source.

Experiments:
[1] = system: endogenous Shh signaling; test: Midline neural plate/notochord explant assay of endogenous Shh signaling; assay type: cell-based, chick; conditions: midline explants, two days of culture
[2] = system: rat hepatoma cells; test: Cholesterol Esterification Assay (esterification of plasma membrane cholesterol); assay type: cell-based
Source text: Table 1. […] Table 1. Effects of synthetic and plant-derived compounds on cholesterol homeostasis. […]

[3] = system: Shh-N; test: Intermediate neural plate explant response to exogenous Shh-N protein; assay type: cell-based, chick
[4] = system: primary human lymphoblasts; test: Cholesterol Biosynthesis Assay (sterol profiles of cultured cells); assay type: cell-based; conditions: five days
[5] = biological target: T1, Shh (Mus musculus, UniProt Q62226); test: Shh autoprocessing in stably transfected HK293 cells (immunoblot); assay type: cell-based; conditions: added during the 24-hour induction period; doses up to 5-fold higher than those required to completely inhibit Shh signaling
T1 construct: expressed in transfected cells; host or cells: HK293 cells, Ecdysone-Inducible Mammalian Expression System (Invitrogen)
T1 sequence (Q62226 25-437): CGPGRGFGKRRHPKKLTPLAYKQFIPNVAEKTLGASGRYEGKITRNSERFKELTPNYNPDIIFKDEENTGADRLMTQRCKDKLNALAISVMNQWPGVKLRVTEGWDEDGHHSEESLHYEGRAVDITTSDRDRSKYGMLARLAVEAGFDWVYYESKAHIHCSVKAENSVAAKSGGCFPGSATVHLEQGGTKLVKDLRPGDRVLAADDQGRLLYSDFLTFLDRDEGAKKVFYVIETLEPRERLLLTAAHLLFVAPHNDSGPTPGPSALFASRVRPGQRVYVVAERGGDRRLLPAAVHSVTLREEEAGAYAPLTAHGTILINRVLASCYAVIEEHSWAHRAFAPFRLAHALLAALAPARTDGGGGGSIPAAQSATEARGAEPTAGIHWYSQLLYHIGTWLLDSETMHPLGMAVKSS
Source text: To examine potential effects of these compounds on Shh processing we utilized HK293 cells cultured in lipid-depleted serum and carrying a stable integrated construct for expression of Shh under ecdysone-inducible control (47). Shh protein expression in these cells can be induced by addition of muristerone A, an ecdysone analog.
• 1. M. Hammerschmidt, A. Brook, A. P. McMahon, Trends Genet, 13, 14-21 (1997). • 2. C. Chiang, et al., Nature, 383,407-413 (1996). • 3. Y. Tanabe, T. M. Jessell, Science 274, 1115-1123 (1996). • 4. T. P. Yamaguchi, Curr. Opin. Genet. Dev. 7, 513-518 (1997). • 5. N. Shubin, C. Tabin, S. Carroll, Nature 388, 639-648 (1997). • 6. A. E. Oro, et al., Science 276, 817-821 (1997). • 7. M. M. Cohen, K. K. Sulik, J. Craniofac. Genet. Deve. Biol. 12, 196-244 (1992). • 8. E. Belloni, et al., Nature Genet. 14, 353-356 (1996). • 9. E. Roessler, et al., Nature Genet. 14, 357-360 (1996). • 10. J. A. Porter, et al., Nature 374, 363-366 (1995). • 11. J. A. Porter, K. E. Young, P. A. Beacy, Science 274, 255-259 (1996b). • 12. J. J. Lee, et al., Science 266, 1528-1537 (1994). • 13. J. A. Porter, et al., Cell 86, 21-34 (1996a). • 14. C. Roux, Arch. Franc. Pediatr. 21, 451-464 (1964). • 15. C. Roux, C. R. Soc. Biol. 160, 1353-1357 (1966). • 16. D. B. Dehart, L. Lanoue, G. S. Tinit, K. K. Sulik, Am J. Med. Genet. 68, 328-337 (1997). • 17. M. Kraml, J. F. Bagli, D. Dvornik, Biochem. and Biophysical Res. Com. 15, 455-457 (1964). • 18. J. Avigan, D. Steinberg, H. E. Vroman, M. J. Thompson, E. Mosettig, J. Biol. Chem 235, 3123-3126 (1960). • 19. R. B. Clayton, A. N. Nelson, I. D. Frantz Jr., J. Lipid Res. 4, 166-178 (1963). • 20. J. Aufenanger, J. Pill, K. Stegmeier, F. H. Schmidt, Horm. Metabol. Res. 17, 612-613 (1986). • 21. […] G. Popjak, A. Meenean, E. J. Parish, W. D. Nes, J. Biol. Chem 264,6230-6238 (1989). • 23. H. Yoshikawa, Brain Deve. 13, 115-120 (1991). • 24. R. I. Kelley, et al., Am. J. Of Med. Gen. 66, 478-484 (1996). • 25. G. S. Tint, et al., New England Journal of Medicine 330, 107-113 (1994). • 26. T.E. Willnow, et al., Proc. Natl. Acad. Sci USA 93, 8460-8464 (1996). • 27. S. Stefansson, D. A. Chappell, K. M. Argraves, D. K. Strickland, W. S. Argraves, J. Biol. Chem. 270, 19417-19421 (1995). • 28. W. Binns, L. F. James, J. L. Shupe, G. Everett, Am. J. Vet. Res. 24, 1164-1174 (1963). • 29. R. F. Keeler, W. Binns, Teratology 1, 5-10 (1968). • 30. P. A. Beachy, et al., CSH Symp. Quant. Biol. 62, in press (1997). • 31. E. D. Carstea, et al., Science 277, 228-231 (1997). • 32. S. K. Loftus, et al., Science 277, 232-235 […]. • 33. L. V. Goodrich, L. Milenkovic, K. M. Higgins, M. P. Scott, Science 277, 1109-1113 (1997). • 34. H. Kumagai, K. T. Chun, R. D. Simoni, J. Biol. Chem. 270, 19107-19113 (1995). • 35. G. Gil, J. R. Faust, D. J. Chin, J. L. Goldstien, M. S. Brown, Cell 41, 249-258 (1985). • 36. X. Hua, A. Nohturfft, J. L. Goldstein, M. S. Brown, Cell 87, 415-426 (1996). • 37. M. S. Brown, J. L. Goldstein, Cell 89, 331-340 (1997). • 38. M. M. Bryden, C. Perry, R. F. Keeler, Teratology 8, 18-28 (1973). • 39. M. L. Omnell, F. R. P. Sim, R. F. Keeler, L. C. Harne, K. W. Brown, Teratology 42, 105-119 (1990). • 40. Fertile chick eggs (white leghorn) were placed in a humidified incubator at 37.5° C in a rotating tray for 14 hours. […] The window was taped and the eggs incubated for an additional 4 days. The embryos were dissected in phosphate buffered saline (PBS, pH 7.2).

[6] = read-out: Percent Inhibition (incorporation of label into cholesteryl ester*) ^3H-Cholesterol
[7] = read-out: Percent Inhibition (incorporation of label into cholesteryl ester*) ^14C-Oleic Acid

CCN(CC)CCOc1ccc(C(O)(Cc2ccc(Cl)cc2)c2ccc(C)cc2)cc1 (stereo not drawn) [Triparanol, triparanol]
Higher doses that fully inhibit HNF3β and Isl-1 induction [1]: 1.0 µM
Intermediate doses that block induction of HNF3β while permitting induction of Isl-1 [1]: 0.25 µM
inhibition at 2.5 µM [2, 6]: 49%
inhibition at 2.5 µM [2, 7]: 54%
inhibition at 5 µM [2, 6]: 57%
inhibition at 5 µM [2, 7]: 65%
inhibition at 10 µM [2, 6]: 79%
inhibition at 10 µM [2, 7]: 81%
concentration that inhibits the repression of Pax7 expression by 2 nM Shh-N ([3]; 2 nM Shh-N, 20 hours): 0.25 µM
doses at which HNF3β and Isl-1 induction are completely blocked ([3]; 25 nM Shh-N): 0.5 µM
intermediate levels at which induction of HNF3β is blocked while induction of Isl-1 is maintained or expanded ([3]; 25 nM Shh-N): 0.25 µM
Percent Sterols: 2. C28 Sterols ([4]; 0.25 µM): 4.4%
Percent Sterols: 3. C29 Sterols ([4]; 0.25 µM): 7.8%
Percent Sterols: Cholesterol ([4]; 0.25 µM): 56%
Percent Sterols: a. Desmosterol ([4]; 0.25 µM): 9.1%
Percent Sterols: b. 7 Dehydrodesmosterol ([4]; 0.25 µM): 6.0%
Percent Sterols: c. Cholesta-7,24-dien-3ß-ol ([4]; 0.25 µM): 3.1%
Percent Sterols: d. Zymosterol ([4]; 0.25 µM): 9.3%
Percent Sterols: e. Cholesta-8(14)-en-3ß-ol ([4]; 0.25 µM): 9.1%
Total Sterols (µg/mg protein) ([4]; 0.25 µM): 4.1 µg/mg protein
Percent Sterols: 2. C28 Sterols ([4]; 0.5 µM): 2.6%
Percent Sterols: 3. C29 Sterols ([4]; 0.5 µM): 8.1%
Percent Sterols: Cholesterol ([4]; 0.5 µM): 45%
Percent Sterols: a. Desmosterol ([4]; 0.5 µM): 8.7%
Percent Sterols: b. 7 Dehydrodesmosterol ([4]; 0.5 µM): 4.1%
Percent Sterols: c. Cholesta-7,24-dien-3ß-ol ([4]; 0.5 µM): 2.4%
Percent Sterols: d. Zymosterol ([4]; 0.5 µM): 27%
Percent Sterols: e. Cholesta-8(14)-en-3ß-ol ([4]; 0.5 µM): 8.7%
Total Sterols (µg/mg protein) ([4]; 0.5 µM): 5.1 µg/mg protein
Percent Sterols: 2. C28 Sterols ([4]; 1.0 µM): 1.5%
Percent Sterols: 3. C29 Sterols ([4]; 1.0 µM): 5.5%
Percent Sterols: Cholesterol ([4]; 1.0 µM): 51%
Percent Sterols: a. Desmosterol ([4]; 1.0 µM): 6.7%
Percent Sterols: b. 7 Dehydrodesmosterol ([4]; 1.0 µM): 2.9%
Percent Sterols: c. Cholesta-7,24-dien-3ß-ol ([4]; 1.0 µM): 2.6%
Percent Sterols: d. Zymosterol ([4]; 1.0 µM): 23%
Percent Sterols: e. Cholesta-8(14)-en-3ß-ol ([4]; 1.0 µM): 7.3%
Total Sterols (µg/mg protein) ([4]; 1.0 µM): 3.1 µg/mg protein
Shh-Np production and accumulation of unprocessed precursor [5]: did not diminish Shh-Np production nor induce accumulation of unprocessed precursor
